This experiment has as its target human CaV2.2 (α1B, β3, α2δ1) (Homo sapiens, UniProt Q00975). The experiment is described as follows: cell-based.

As a reminder, the IC50 is the midpoint of a concentration-inhibition curve. Higher therefore signals weaker potency in that assay.

Where a SMILES comes first, the peptide text is derived from it. Bridges are numbered along the chain shown (N, C = ends).

human CaV2.2 (α1B, β3, α2δ1), sequence (Q00975 whole entry, looked up): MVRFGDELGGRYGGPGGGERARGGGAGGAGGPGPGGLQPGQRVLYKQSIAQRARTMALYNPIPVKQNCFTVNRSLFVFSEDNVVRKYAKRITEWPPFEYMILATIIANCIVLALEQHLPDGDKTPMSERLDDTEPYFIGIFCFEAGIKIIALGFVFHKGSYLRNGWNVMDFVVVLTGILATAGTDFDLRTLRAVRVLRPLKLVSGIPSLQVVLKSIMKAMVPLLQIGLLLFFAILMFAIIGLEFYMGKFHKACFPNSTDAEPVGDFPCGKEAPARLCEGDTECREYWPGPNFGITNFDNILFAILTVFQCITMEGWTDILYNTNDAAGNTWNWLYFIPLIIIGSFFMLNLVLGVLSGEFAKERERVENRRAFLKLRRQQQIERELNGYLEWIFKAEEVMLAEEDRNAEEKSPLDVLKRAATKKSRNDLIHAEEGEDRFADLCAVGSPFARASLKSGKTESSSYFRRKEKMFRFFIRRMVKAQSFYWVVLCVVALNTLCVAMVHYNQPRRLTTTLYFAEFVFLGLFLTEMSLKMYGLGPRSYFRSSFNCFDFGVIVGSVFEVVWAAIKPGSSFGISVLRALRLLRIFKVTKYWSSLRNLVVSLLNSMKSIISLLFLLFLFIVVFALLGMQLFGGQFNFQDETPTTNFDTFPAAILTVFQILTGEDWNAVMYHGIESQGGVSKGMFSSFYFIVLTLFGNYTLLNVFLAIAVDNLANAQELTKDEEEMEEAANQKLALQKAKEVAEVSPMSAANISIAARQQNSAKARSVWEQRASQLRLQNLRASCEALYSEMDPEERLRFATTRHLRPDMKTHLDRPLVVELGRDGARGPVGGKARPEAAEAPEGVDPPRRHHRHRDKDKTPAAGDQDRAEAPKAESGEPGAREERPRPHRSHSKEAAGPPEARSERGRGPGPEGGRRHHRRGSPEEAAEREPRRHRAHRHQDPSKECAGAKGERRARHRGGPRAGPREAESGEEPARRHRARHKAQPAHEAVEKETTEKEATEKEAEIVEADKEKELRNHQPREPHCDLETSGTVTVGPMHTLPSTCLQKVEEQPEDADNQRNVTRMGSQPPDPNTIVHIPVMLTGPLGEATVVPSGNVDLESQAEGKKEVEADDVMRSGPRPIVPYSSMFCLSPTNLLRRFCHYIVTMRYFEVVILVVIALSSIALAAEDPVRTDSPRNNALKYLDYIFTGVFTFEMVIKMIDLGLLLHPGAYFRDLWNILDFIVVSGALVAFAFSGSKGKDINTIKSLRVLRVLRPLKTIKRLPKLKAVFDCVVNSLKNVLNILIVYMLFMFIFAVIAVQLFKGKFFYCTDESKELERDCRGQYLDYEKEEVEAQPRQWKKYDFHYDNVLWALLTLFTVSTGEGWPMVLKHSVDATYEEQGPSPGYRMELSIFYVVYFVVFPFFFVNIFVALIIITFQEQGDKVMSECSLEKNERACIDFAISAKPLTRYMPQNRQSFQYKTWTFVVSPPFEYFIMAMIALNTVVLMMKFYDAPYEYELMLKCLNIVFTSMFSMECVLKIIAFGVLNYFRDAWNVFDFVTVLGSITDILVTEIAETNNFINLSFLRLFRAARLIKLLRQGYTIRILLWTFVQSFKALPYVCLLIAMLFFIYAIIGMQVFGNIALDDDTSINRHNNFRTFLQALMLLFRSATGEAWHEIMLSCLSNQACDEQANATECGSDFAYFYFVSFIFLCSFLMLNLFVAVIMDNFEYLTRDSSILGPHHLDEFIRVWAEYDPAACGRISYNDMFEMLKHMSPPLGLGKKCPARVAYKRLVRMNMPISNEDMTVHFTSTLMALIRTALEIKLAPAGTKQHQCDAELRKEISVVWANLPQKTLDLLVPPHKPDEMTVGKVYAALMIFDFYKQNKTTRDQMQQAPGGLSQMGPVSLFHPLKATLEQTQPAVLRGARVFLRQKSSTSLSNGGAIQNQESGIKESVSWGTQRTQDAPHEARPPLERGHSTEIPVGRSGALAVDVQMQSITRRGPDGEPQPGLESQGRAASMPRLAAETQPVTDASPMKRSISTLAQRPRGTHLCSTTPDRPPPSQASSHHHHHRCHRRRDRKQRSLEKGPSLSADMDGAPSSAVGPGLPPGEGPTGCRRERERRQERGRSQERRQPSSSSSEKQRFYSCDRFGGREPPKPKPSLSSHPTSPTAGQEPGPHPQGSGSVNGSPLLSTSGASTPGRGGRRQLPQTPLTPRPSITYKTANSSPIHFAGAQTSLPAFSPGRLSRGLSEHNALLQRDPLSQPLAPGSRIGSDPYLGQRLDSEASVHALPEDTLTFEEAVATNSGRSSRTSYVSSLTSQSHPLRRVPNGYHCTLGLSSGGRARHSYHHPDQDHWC

For the compound `CC[C@H](C)[C@@H]1NC(=O)[C@@H]2CCCN2C(=O)[C@@H]2CSSC[C@H](NC(=O)[C@@H](N)CC(N)=O)C(=O)N[C@@H](CSSC[C@@H](C(N)=O)NC(=O)[C@H](CC(N)=O)NC(=O)[C@H](Cc3ccccc3)NC(=O)[C@H](CCCNC(=N)N)NC(=O)[C@H](CO)NC(=O)[C@H](Cc3ccc(O)cc3)NC(=O)[C@H](CC(=O)O)NC1=O)C(=O)N[C@@H](CCSC)C(=O)N[C@@H](Cc1ccccc1)C(=O)N[C@@H](Cc1c[nH]cn1)C(=O)N[C@@H]([C@@H](C)O)C(=O)N2` [Vt1.27] (H-NCCMFHTCPIDYSRFNC-NH2; disulfide 2-8, 3-17), the concentration for half-maximal inhibition (IC50) came to 398 nM; the “half-maximum inactivation (V0.5, inact)” value is given as −69.0 ± 1.0 mV; the “shift of half-maximum inactivation (V0.5, inact)” value is given as 3 mV; the “τoff (off kinetics of inhibition)” value was determined as 2.7 ± 0.15 s. Moreover, the “τon (on kinetics of inhibition)” value amounted to 4.5 ± 0.48 s.

The values are drawn from publication PMC9230573 (Frontiers in Pharmacology, 2022).
